Measured values as given in the COVID Moonshot data (paper PMC7615835).
Values joined by “and” are separate entries in the source; they are usually repeats but may differ in a detail not shown here. Identical values can stand only once.

What follows are molecules tested against SARS-CoV-2 Main Protease (SARS-CoV-2) (UniProt P0DTD1).
In the case of O=C(CC1(C(=O)Nc2cncc3ccccc23)CCOc2ccc(Cl)cc21)N1CCC2CS(=O)(=O)CC2C1 (stereo not drawn), the IC50 is reported as 1.67 µM. For O=C(Cc1ccc(Cl)cc1)Nc1cncc2ccccc12, the IC50 was 23.7 µM. In the case of O=C(Cc1cccc(Cl)c1)Nc1ncnc2ccccc12, the IC50 is reported as > 99.5 µM. CC(C)(C)c1ccc(N(C(=O)c2cocn2)C(C(=O)NCc2cccnc2)c2cccnc2)cc1 (stereo not drawn) was tested, and the IC50 was 25.3 µM. In the case of CC1(NC(=O)CN2Cc3ccc(Cl)cc3C3(CCN(c4cncc5ccccc45)C3=O)C2)CC1 (stereo not drawn), the IC50 is reported as 0.271 µM. For COc1ccc2cncc(NC(=O)C3CCOc4cc(F)c(Cl)cc43)c2c1 (stereo not drawn), the IC50 was 0.101 µM and 0.114 µM. In the case of O=C(Cc1cccc(Cl)c1)Nc1noc2ccccc12, the IC50 is reported as > 99.5 µM. Cn1cnc2cc(N(C(=O)c3cnc[nH]3)C(C(=O)NCCc3cccc(F)c3)c3cccnc3)ccc21 (stereo not drawn) was tested, and the IC50 was > 99 µM. In the case of O=C(Cc1cccc(Cl)c1)Nc1cncc2c1CCCC2, the IC50 is reported as > 99.5 µM. For O=C(CC1(C(=O)Nc2cncc3ccccc23)CCOc2ccc(Cl)cc21)N1C[C@@H]2C[C@H]1CN2CC(F)F (stereo in doubt), the IC50 was 3.78 µM. With CCN(CC)S(=O)(=O)c1ccc(S(=O)(=O)N2CCN(S(N)(=O)=O)CC2)cc1 the IC50 was > 99.5 µM. Work on O=C(Cc1cc(O)cc(Cl)c1)Nc1cncc2ccccc12 yielded an IC50 of 9.89 µM. For CC(=O)C(=O)N1CCN(Cc2cccc(Cl)c2)[C@@H](CC(C)C)C1 (stereo in doubt), the IC50 was > 99.5 µM. Molecule CNC(=O)C1(N2Cc3ccc(Cl)cc3C3(CCN(c4cncc5ccc(OCCN(C)C)cc45)C3=O)C2)CC1 (stereo not drawn) has an IC50 of 0.614 µM. Work on Cc1cccn2ncc(NC(=O)C3CNC(=O)c4ccc(Cl)cc43)c12 (stereo not drawn) yielded an IC50 of 2.4 µM. Work on O=C(CCc1cccc(Cl)c1)Nc1cncc2ccccc12 yielded an IC50 of 20.8 µM. Cn1cncc1NC(=O)Cc1cccc(Cl)c1 was tested, and the IC50 was 93.9 µM. Work on Cc1ccncc1NC(=O)Cc1cccc(Br)c1 yielded an IC50 of 20.6 µM. In the case of CC1CN(C(=O)CC2(C(=O)Nc3cncc4ccccc34)CCOc3ccc(Cl)cc32)CCN1CCO (stereo not drawn), the IC50 is reported as > 99.5 µM. For CC(NC(=O)COc1ccc(C(N)=O)cc1)(C(=O)Nc1cncc2ccccc12)c1ccc(Cl)c(Cl)c1 (stereo not drawn), the IC50 was 10.5 µM and 14.3 µM. For CN(C(=O)OC(C)(C)C)[C@H]1CCN(c2cc(Cl)cc(CC(=O)Nc3cncc4ccccc34)c2)C1 (stereo in doubt), the IC50 was 4.21 µM. O=C(Cc1cc(Cl)cc(Nc2cccc(Cl)c2Br)c1)Nc1cncc2ccccc12 gave an IC50 of 1.94 µM. O=C(Cc1cc(Cl)cc(Nc2c(Cl)cccc2[N+](=O)[O-])c1)Nc1cncc2ccccc12 showed an IC50 of 2.37 µM. For CS(=O)(=O)c1ncc(Cl)c(C(=O)Nc2ccccc2Cc2ccccc2)n1, the IC50 was 0.469 µM and 0.54 µM. In the case of C/C=C/C=C/C(=O)N1CC=C(c2c[nH]c3ncccc23)CC1, the IC50 is reported as > 99.5 µM. For O=C(Cc1cccc(Cl)c1)Nc1nnc2ccccn12, the IC50 was > 99.5 µM. CC1(CS(=O)(=O)N2Cc3ccc(Cl)cc3C(C(=O)Nc3cncc4ccc(C(C)(C)O)cc34)C2)CS(=O)(=O)C1 (stereo not drawn) gave an IC50 of 2.36 µM. With COc1cccc(CN2CCN(C(=O)c3cc(=O)[nH]c4ccccc34)CC2)c1 the IC50 was 27.3 µM. For Clc1ccc2c(c1)C1(CCO2)CCN(c2cncc3ccccc23)C1 (stereo not drawn), the IC50 was > 99.5 µM. With O=C1NC[C@H](C(=O)Nc2cncc3ccccc23)c2cc(Cl)ccc21 (stereo in doubt) the IC50 was 0.185 µM. In the case of O=C(CN1CC(C(=O)Nc2cncc3cc(F)ccc23)c2cc(Cl)ccc2C1=O)NC1CC1 (stereo not drawn), the IC50 is reported as 0.556 µM. For CCN(C)S(=O)(=O)N1Cc2ccc(Cl)cc2C2(CCN(c3cncc4ccccc34)C2=O)C1 (stereo not drawn), the IC50 was 0.563 µM. With O=C(NCCc1cccc(F)c1)C(c1cccnc1)N(C(=O)c1cocn1)C1CCN(c2ccccc2)C1 (stereo not drawn) the IC50 was > 99.5 µM. In the case of O=C(Nc1cncc2ccccc12)[C@@H]1CN(S(=O)(=O)CC2CS(=O)(=O)C2)Cc2ccc(Cl)cc21 (stereo in doubt), the IC50 is reported as 8.23 µM. For O=C1CCCN(S(=O)(=O)c2cccc(F)c2)CC1, the IC50 was > 99.5 µM. For Cc1cn2c(CNC(=O)c3cnn4ccccc34)c(C)nc2s1, the IC50 was > 99.5 µM. COC(=O)[C@H]1C[C@@H](NC(=O)C(c2cccnc2)N(C(=O)c2cocn2)c2ccc(C(C)(C)C)cc2)CN1C(=O)OC(C)(C)C (stereo in doubt) was tested, and the IC50 was 5.32 µM. O=C(Cc1cc(Cl)cc(Nc2ccc3scnc3c2)c1)Nc1cncc2ccccc12 showed an IC50 of 2.22 µM. In the case of Cc1ccncc1NC(=O)CN(C)S(=O)(=O)c1cccc2cccnc12, the IC50 is reported as > 99 µM. CCCCOc1ccc(Cl)cc1CC(=O)Nc1cnccc1C was tested, and the IC50 was 24.8 µM. In the case of O=C(NCCc1cccc(F)c1)C(c1cccnc1)N(C(=O)c1cocn1)c1ccc(C(F)(F)F)nc1 (stereo not drawn), the IC50 is reported as 36.4 µM. With O=C(Cc1cc(Cl)cc(NCc2c(Cl)cccc2Cl)c1)Nc1cncc2ccccc12 the IC50 was 2.71 µM. O=C(Cc1cc(Cl)cc(NCc2ccc(Br)cc2)c1)Nc1cncc2ccccc12 was tested, and the IC50 was > 99.5 µM. For O=C(Cc1cc(Cl)cc(Nc2c(F)cc(F)cc2Cl)c1)Nc1cncc2ccccc12, the IC50 was 2.06 µM. Molecule CN1CC(C)(C(=O)Nc2cncc3cc(S(C)(=O)=O)ccc23)c2cc(Cl)ccc2S1(=O)=O (stereo not drawn) has an IC50 of 0.523 µM. With CCOC(=O)c1c(COc2cc(Cl)cc(CC(=O)Nc3cnccc3C)c2)oc2ccccc12 the IC50 was > 99.5 µM. With C[C@H](C(=O)O)C(=O)SCCNC(=O)CCNC(=O)[C@H](O)C(C)(C)COP(=O)(O)OP(=O)(O)OC[C@H]1O[C@@H](n2cnc3c(N)ncnc32)[C@H](O)[C@@H]1OP(=O)(O)O (stereo in doubt) the IC50 was > 99 µM. In the case of CCN1CCCC1C1CCCN1C(=O)CCc1c[nH]c2ccccc12 (stereo not drawn), the IC50 is reported as > 99.5 µM.
